Laboratory results published in article PMC4757823, “μ Opioid receptor: novel antagonists and structural modeling” (Scientific Reports, 2016).

Legend:
[1] = biological target: T1, human MOR (Homo sapiens, UniProt P35372); experiment: Radioligand MOR binding assay ([3H]DAMGO competition, CHO-hMOR membranes); settings: for inhibition at 10 µM: read-out: inhibition of [3H]DAMGO binding to the MOR
T1 construct: expressed in transfected cells; host or cells: CHO (Chinese hamster ovary) cells stably expressing human MOR; gift from Dr. Lawrence Toll, SRI International
T1 sequence (P35372 whole entry): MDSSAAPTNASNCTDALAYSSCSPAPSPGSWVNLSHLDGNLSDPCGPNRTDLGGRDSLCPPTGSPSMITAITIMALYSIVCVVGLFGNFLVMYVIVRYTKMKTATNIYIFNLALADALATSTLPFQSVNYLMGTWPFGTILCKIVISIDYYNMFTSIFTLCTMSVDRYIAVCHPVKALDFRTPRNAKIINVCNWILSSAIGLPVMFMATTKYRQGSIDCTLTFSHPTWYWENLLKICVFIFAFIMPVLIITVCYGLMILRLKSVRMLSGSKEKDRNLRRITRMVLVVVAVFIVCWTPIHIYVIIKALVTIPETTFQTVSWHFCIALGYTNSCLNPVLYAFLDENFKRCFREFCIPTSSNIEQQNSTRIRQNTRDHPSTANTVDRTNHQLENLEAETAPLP

[2] = biological target: T1, human MOR; experiment: [35S]GTPγS binding assay in CHO-hMOR cell membranes; format: biochemical; settings: for stimulation of [35S]GTPγS binding: CHO-hMOR membranes, agonist mode
Protocol: Determination of [^35S]GTPγS binding to CHO-hMOR cell membranes were performed as described previously. Cell membranes (5–10 μg protein), prepared as described for the radioligand MOR binding assay, were incubated in the absence or in the presence of test compound in the assay buffer (20 mM HEPES, 100 mM NaCl, 10 mM MgCl2, pH 7.4) containing [^35S]GTPγS (0.05 nM) and GDP (10 nM) in a total volume of 1.0 mL for 60 min at 25 °C. Nonspecific binding was determined using 10 μM GTPγS, and the basal binding was determined in the absence of test compound. Samples were filtered over glass fiber filters and counted as described for the radioligand binding assays. […] The antagonist equilibrium dissociation constant Ke for 4 was calculated using the equation Ke = [a]/(DR − 1), where “a” is the concentration of antagonist. All experiments were performed in duplicate and repeated at least three times.

[3] = biological target: T1, human MOR; experiment: cAMP accumulation assay (GloSensor) in CHO-hMOR-p22F cells; format: cell-based; settings: for inhibition of the forskolin-stimulated cAMP production: CHO-hMOR-p22F cells, agonist mode
Protocol: Inhibition of the forskolin-stimulated intracellular cAMP accumulation in CHO cells co-expressing the hMOR and the cAMP biosensor GloSensor-22F (CHO-hMOR-p22F cells) was performed using the Glo-Sensor^TM cAMP assay (Promega), according to the manufacturer’s instructions. Cells were seeded in growth medium into 384-well plates at a density of 5,000 cells in 30 μL per well and incubated overnight. On the day of assay, culture media was removed, and cells were pre-equilibrated for 90 min with 4% v/v of the GloSensor cAMP reagent in reaction medium (20 mM HEPES, 1 × HBSS, pH 7.4) at 37 °C and 5% CO2. […] Forskolin (10 μM) was added to each well, and luminescence was measured after 20 min. All experiments were performed in triplicate and repeated at least three times.

[4] = biological target: μ1 receptors; set-up: method as in PMID 8069669; settings: lowering radioligand binding; cited from earlier work
[5] = biological target: μ2 receptors; set-up: method as in PMID 8069669; settings: lowering radioligand binding; cited from earlier work
[6] = tested on: mouse tail-flick test; set-up: method as in PMID 8069669; settings: cited from earlier work
[7] = tested on: morphine-induced antinociception in mice; experiment: Acetic acid-induced writhing test, antagonism of morphine-induced antinociception; format: in vivo, mouse; settings: s.c.
[8] = tested on: morphine-induced antinociception in mice; experiment: Tail-flick test, antagonism of morphine-induced antinociception; format: in vivo, mouse
[9] = tested on: MOR; settings: concentration of 100 μM; cited from earlier work
[10] = tested on: μ3 opioid receptor subtype; set-up: method as in PMID 15580165; settings: human monocytes; cited from earlier work

Structure (SMILES) | Ki [1] [µM] | inhibition at 10 µM [1] [%] | stimulation of [35S]GTPγS binding [2] | inhibition of the forskolin-stimulated cAMP production [3] | other results
COc1ccc(S(=O)(=O)N2CCCN(c3c(Cl)cncc3Cl)CC2)cc1OC [Compound 5] | 7.01 | ≥ 50 | none of the three ligands produced any increase | not effective | 
Cc1c(NC(=O)c2ccc(Cl)cc2)cc(-c2ccccc2)n1CCCN1CCOCC1 [Compound 3] | 10.7 | ≥ 50 | none of the three ligands produced any increase | not effective | 
COc1ccc(CC2c3cc(OC)c(OC)cc3CCN2C)cc1OC (stereo not drawn) [Laudanosine] |  |  |  |  | Ki [4]: 2.7 µM; Ki [5]: 13 µM; antinociceptive effects [6]: exert antinociceptive effects
COc1cc2c(cc1OC)C(C)N(Cc1cc(C)c(O)c(C)c1)CC2 (stereo not drawn) [Compound 4] | 1.11 | ≥ 50 | none of the three ligands produced any increase | not effective | Kb ([2]; read-out: antagonist equilibrium constant (Ke)): 1.02 ± 0.25 µM; rightward shift in the concentration-response for DAMGO ([3]; DAMGO inhibition of forskolin-stimulated cAMP accumulation): 3 fold; Kb ([3]; read-out: Ke): 8.03 ± 0.38 µM; effect on pain behavior when administered alone (chemical sensitivity) ([7]; alone, vs. vehicle): did not affect pain behavior; reversal of morphine analgesia in the writhing test ([7]; given 30 min prior to s.c. morphine): significant and dose-dependent reversal; blockade of morphine's analgesic effect against thermal-induced nociception ([8]; 20 mg/kg s.c. pretreatment, 30 min prior to s.c. morphine): complete blockade; effect on pain behavior when administered alone (thermal sensitivity) ([8]; s.c., alone, vs. vehicle): did not affect pain behavior
COc1ccc(C[C@H]2c3cc(O)c(OC)cc3CCN2C)cc1O [reticuline] |  |  |  |  | % of morphine effects [9]: ca. 16%; binding to the μ3 opioid receptor subtype [10]: no binding
